Test results as given in publication PMC7872314, “Modeling Bioavailable Concentrations in Zebrafish Cell Lines and Embryos Increases the Correlation of Toxicity Potencies across Test Systems” (Environmental Science & Technology, 2020).
Where two headings read alike, the source gives them in different places.

Key:
[1] = test system: ZF4 (fibroblasts) cell line; test: MTS assay (MTS/BCA multiplex), NAD(P)H metabolism; type: cell-based, zebrafish (Danio rerio); settings: Danio rerio, Fibroblast
[2] = test system: ZFL (hepatocytes) cell line; test: cells; type: cell-based, zebrafish (Danio rerio); settings: Danio rerio, Hepatocyte
[3] = test system: ZF4 (fibroblasts) cell line; test: BCA assay (MTS/BCA multiplex), protein amount; type: cell-based, zebrafish (Danio rerio); settings: Danio rerio, Fibroblast
[4] = test system: ZFL (hepatocytes) cell line; test: cells; type: cell-based, zebrafish (Danio rerio); settings: Danio rerio, Hepatocyte; remark: listed apart in the source
[5] = test system: ZF4 (fibroblasts) cell line; test: ATP assay (ATP/LDH multiplex), ATP metabolism; type: cell-based, zebrafish (Danio rerio); settings: Danio rerio, Fibroblast
[6] = test system: ZFL (hepatocytes) cell line; test: cells; type: cell-based, zebrafish (Danio rerio); settings: Danio rerio, Hepatocyte; remark: listed apart in the source
[7] = test system: ZF4 (fibroblasts) cell line; test: alamarBlue (AB) endpoint of AB/CFDA/NR multiplex, cellular respiration; type: cell-based, zebrafish (Danio rerio); settings: Danio rerio, Fibroblast
[8] = test system: ZFL (hepatocytes) cell line; test: cells; type: cell-based, zebrafish (Danio rerio); settings: Danio rerio, Hepatocyte; remark: listed apart in the source
[9] = test system: ZF4 (fibroblasts) cell line; test: CFDA endpoint of AB/CFDA/NR multiplex, membrane stability; type: cell-based, zebrafish (Danio rerio); settings: Danio rerio, Fibroblast
[10] = test system: ZFL (hepatocytes) cell line; test: cells; type: cell-based, zebrafish (Danio rerio); settings: Danio rerio, Hepatocyte; remark: listed apart in the source
[11] = test system: ZF4 (fibroblasts) cell line; test: Neutral red, absorbance (NRa), AB/CFDA/NR multiplex, lysosome stability; type: cell-based, zebrafish (Danio rerio); settings: Danio rerio, Fibroblast
[12] = test system: ZFL (hepatocytes) cell line; test: cells; type: cell-based, zebrafish (Danio rerio); settings: Danio rerio, Hepatocyte; remark: listed apart in the source
[13] = test system: ZF4 (fibroblasts) cell line; test: Neutral red, fluorescence (NRf), AB/CFDA/NR multiplex, lysosome stability; type: cell-based, zebrafish (Danio rerio); settings: Danio rerio, Fibroblast
[14] = test system: ZFL (hepatocytes) cell line; test: cells; type: cell-based, zebrafish (Danio rerio); settings: Danio rerio, Hepatocyte; remark: listed apart in the source
zebrafish embryos [15] = test: animal or person; type: in vivo, zebrafish (Danio rerio); settings: for EC50: Danio rerio
ZF4 and ZFL cell lines = test: Cytotoxicity assays, all endpoints, both cell lines (mean/range); type: cell-based, zebrafish (Danio rerio); settings: 48 h, mean of all cytotoxicity endpoints (without LDH) in ZF4 and ZFL
[16] = test system: zebrafish cell lines vs zebrafish embryo; test: Potency ratios IC50;x/EC50;x (cytotoxicity assays vs mFET); set-up: species or system zebrafish (Danio rerio)
zebrafish embryos [17] = test system: zebrafish embryos; set-up: method as in earlier work; settings: nominal, cited from earlier work
[18] = test system: diverse mammalian cell assay results; set-up: method as in https://comptox.epa.gov/dashboard/; settings: COMPTOX; ref https://comptox.epa.gov/dashboard/; read-out: median AC50; cited from earlier work
[19] = ref Comptox, PubChem or DrugBank; cited from earlier work

SMILES: COC(=O)Nc1nc2ccc([S+]([O-])c3ccccc3)cc2[nH]1 (stereo not drawn) [Oxfendazole, oxfendazole]
- IC50 ([1]; MTS - ZF4, log10 of IC50, read-out: LogIC50 (converted)): 20.4 µM
- IC50 ([1]; MTS - ZF4, read-out: IC50): 20.4 µM
- IC50 ([1]; ZF4, 48 h exposure, nominal, log10, read-out: logIC50 (log10 IC50;nom) MTS (converted)): 20.4 µM
- IC50 ([1]; ZF4, 48 h exposure, nominal, read-out: IC50;nom MTS): 20.4 µM
- IC50 ([2]; MTS - ZFL, log10 of IC50, read-out: LogIC50 (converted)): 9.73 µM
- IC50 ([2]; MTS - ZFL, read-out: IC50): 9.73 µM
- IC50 ([2]; ZFL, 48 h exposure, nominal, log10, read-out: logIC50 (log10 IC50;nom) MTS (converted)): 9.77 µM
- IC50 ([2]; ZFL, 48 h exposure, nominal, read-out: IC50;nom MTS): 9.73 µM
- IC50 ([3]; BCA - ZF4, log10 of IC50, read-out: LogIC50 (converted)): 6.43 µM
- IC50 ([3]; BCA - ZF4, read-out: IC50): 6.43 µM
- IC50 ([3]; ZF4, 48 h exposure, nominal, log10, read-out: logIC50 (log10 IC50;nom) BCA (converted)): 6.46 µM
- IC50 ([3]; ZF4, 48 h exposure, nominal, read-out: IC50;nom BCA): 6.43 µM
- IC50 ([4]; BCA - ZFL, log10 of IC50, read-out: LogIC50 (converted)): 0.058 µM
- IC50 ([4]; BCA - ZFL, read-out: IC50): 0.058 µM
- IC50 ([4]; ZFL, 48 h exposure, nominal, log10, read-out: logIC50 (log10 IC50;nom) BCA (converted)): 0.0575 µM
- IC50 ([4]; ZFL, 48 h exposure, nominal, read-out: IC50;nom BCA): 0.058 µM
- IC50 ([5]; ATP - ZF4, log10 of IC50, read-out: LogIC50 (converted)): 144 µM
- IC50 ([5]; ATP - ZF4, read-out: IC50): 144 µM
- IC50 ([5]; ZF4, 48 h exposure, nominal, log10, read-out: logIC50 (log10 IC50;nom) ATP (converted)): 145 µM
- IC50 ([5]; ZF4, 48 h exposure, nominal, read-out: IC50;nom ATP): 144 µM
- IC50 ([6]; ATP - ZFL, log10 of IC50, read-out: LogIC50 (converted)): 106 µM
- IC50 ([6]; ATP - ZFL, read-out: IC50): 106 µM
- IC50 ([6]; ZFL, 48 h exposure, nominal, log10, read-out: logIC50 (log10 IC50;nom) ATP (converted)): 105 µM
- IC50 ([6]; ZFL, 48 h exposure, nominal, read-out: IC50;nom ATP): 106 µM
- IC50 ([7]; AB - ZF4, log10 of IC50, read-out: LogIC50 (converted)): 124 µM
- IC50 ([7]; AB - ZF4, read-out: IC50): 124 µM
- IC50 ([7]; ZF4, 48 h exposure, nominal, log10, read-out: logIC50 (log10 IC50;nom) AB (converted)): 123 µM
- IC50 ([7]; ZF4, 48 h exposure, nominal, read-out: IC50;nom AB): 124 µM
- IC50 ([8]; AB - ZFL, log10 of IC50, read-out: LogIC50 (converted)): 10.4 µM
- IC50 ([8]; AB - ZFL, read-out: IC50): 10.4 µM
- IC50 ([8]; ZFL, 48 h exposure, nominal, log10, read-out: logIC50 (log10 IC50;nom) AB (converted)): 10.5 µM
- IC50 ([8]; ZFL, 48 h exposure, nominal, read-out: IC50;nom AB): 10.4 µM
- IC50 ([9]; CFDA - ZF4, log10 of IC50, read-out: LogIC50 (converted)): 153 µM
- IC50 ([9]; CFDA - ZF4, read-out: IC50): 153 µM
- IC50 ([9]; ZF4, 48 h exposure, nominal, log10, read-out: logIC50 (log10 IC50;nom) CFDA (converted)): 151 µM
- IC50 ([9]; ZF4, 48 h exposure, nominal, read-out: IC50;nom CFDA): 153 µM
- IC50 ([10]; CFDA - ZFL, log10 of IC50, read-out: LogIC50 (converted)): 320 µM
- IC50 ([10]; CFDA - ZFL, read-out: IC50): 320 µM
- IC50 ([10]; ZFL, 48 h exposure, nominal, log10, read-out: logIC50 (log10 IC50;nom) CFDA (converted)): 324 µM
- IC50 ([10]; ZFL, 48 h exposure, nominal, read-out: IC50;nom CFDA): 320 µM
- IC50 ([11]; NR-abs - ZF4, log10 of IC50, read-out: LogIC50 (converted)): 58.6 µM
- IC50 ([11]; NR-abs - ZF4, read-out: IC50): 58.6 µM
- IC50 ([11]; ZF4, 48 h exposure, nominal, log10, read-out: logIC50 (log10 IC50;nom) NRa (converted)): 58.9 µM
- IC50 ([11]; ZF4, 48 h exposure, nominal, read-out: IC50;nom NRa): 58.6 µM
- IC50 ([11]; ZF4 cell line, NRa endpoint, nominal, read-out: IC50;nom): 18.5 µg/mL
- IC50 ([12]; NR-abs - ZFL, log10 of IC50, read-out: LogIC50 (converted)): 8.93 µM
- IC50 ([12]; NR-abs - ZFL, read-out: IC50): 8.93 µM
- IC50 ([12]; ZFL, 48 h exposure, nominal, log10, read-out: logIC50 (log10 IC50;nom) NRa (converted)): 8.91 µM
- IC50 ([12]; ZFL, 48 h exposure, nominal, read-out: IC50;nom NRa): 8.93 µM
- IC50 ([13]; NR-fluo - ZF4, log10 of IC50, read-out: LogIC50 (converted)): 54.3 µM
- IC50 ([13]; NR-fluo - ZF4, read-out: IC50): 54.3 µM
- IC50 ([13]; ZF4, 48 h exposure, nominal, log10, read-out: logIC50 (log10 IC50;nom) NRf (converted)): 53.7 µM
- IC50 ([13]; ZF4, 48 h exposure, nominal, read-out: IC50;nom NRf): 54.3 µM
- IC50 ([14]; NR-fluo - ZFL, log10 of IC50, read-out: LogIC50 (converted)): 7.37 µM
- IC50 ([14]; NR-fluo - ZFL, read-out: IC50): 7.37 µM
- IC50 ([14]; ZFL, 48 h exposure, nominal, log10, read-out: logIC50 (log10 IC50;nom) NRf (converted)): 7.41 µM
- IC50 ([14]; ZFL, 48 h exposure, nominal, read-out: IC50;nom NRf): 7.37 µM
- difference in toxicity (EC50;nom) between 48 hpf and 144 hpf (zebrafish embryos [15]; 48 hpf time point less sensitive than 144 hpf): approximately the same
- log EC50;nom (mFET) (zebrafish embryos [15]; 48 hpf, nominal, log10, listed as Ox): -4.607 M
- EC50 (zebrafish embryos [15]; 48 hpf, nominal, log10, read-out: log EC50;nom (mFET) (converted)): 24.5 µM
- EC50 (zebrafish embryos [15]; 48 hpf, nominal, read-out: EC50;nom (embryo)): 7.79 µg/mL
- EC50 (zebrafish embryos [15]; read-out: EC50 48hpf): 24.7 µM
- EC50 (zebrafish embryos [15]; read-out: EC50;nom (mFET)): 24.7 µM
- IC50 (ZF4 and ZFL cell lines; Danio rerio, log10, read-out: Mean log IC50nom (converted)): 23.4 µM
- Mean log IC50nom (ZF4 and ZFL cell lines; log10, listed as Ox): -4.631 M
- potency ratio IC50;nom/EC50;nom (median) ([16]; median over cytotoxicity endpoints, nominal, 48 h cells / 48 hpf mFET): 1.51
- difference in sensitivity between embryo (EC50;nom) and cells (IC50;nom) ([16]; nominal concentrations, higher potency in the mFET): equal nominal median concentrations between test systems
- EC50 (zebrafish embryos [17]; 144 hpf, converted, listed as Ox): 21.6 µM
- logEC50 144 hpf (zebrafish embryos [17]; log10): -4.666 M
- AC50 [18]: 0.34 µM
- BCF [19]: 161
- Physiological charge [19]: 0
- Water Solubility [19]: insoluble
- logKoa [19]: 9.57
- logKow [19]: 1.45
- pKa (Strongest Acidic) [19]: 9.26
- pKa (Strongest Basic) [19]: 3.57
- w_solubility (water solubility) [19]: 864 µM
